These results are taken from patent publication US7265227B2, “Piperidine derivatives useful as modulators of chemokine receptor activity” (AstraZeneca AB, priority 2001, dated 2007).

Molecules are shown by their SMILES.

A word on the melting point: it is the temperature, or range, at which the solid turns liquid.

The test system of data set [1] is eotaxin mediated human eosinophil chemotaxis. Kind of data set: Human eosinophil chemotaxis. The data set is classed as cell-based. Conditions: human eosinophils from peripheral blood; eotaxin 0.1 to 100 nM; 1 hr at 37° C. As to the method: Human Eosinophil Chemotaxis
Human eosinophils were isolated from EDTA anticoagulated peripheral blood as previously described (Hansel et al., J. Immunol. Methods, 1991, 145, 105-110). The cells were resuspended at 10×10^6 ml^−1 in RPMI containing 200 IU/ml penicillin, 200 μg/ml streptomycin sulfate and supplemented with 10% HIFCS, at room temperature.
Eosinophils (700 μl) were pre-incubated for 15 mins at 37° C. with 7 μl of either vehicle or compound (100× required final concentration in 10% DMSO). The chemotaxis plate (ChemoTx, 3μ, pore, Neuroprobe) was loaded by adding 28 μl of a concentration of eotaxin (0.1 to 100 nM) containing a concentration of a compound according to the Examples or solvent to the lower wells of the chemotaxis plate. The filter was then placed over the wells and 25 μl of eosinophil suspension were added to the top of the filter. The plate was incubated for 1 hr at 37° C. in a humidified incubator with a 95% air/5% CO2 atmosphere to allow chemotaxis.
The medium, containing cells that had not migrated, was carefully aspirated from above the filter and discarded. The filter was washed once with phosphate buffered saline (PBS) containing 5 mM EDTA to remove any adherent cells. […] The number of eosinophils migrating was quantified according to the method of Strath et al., J. Immunol. […]

A further data set deals with T1, H1 (Cavia porcellus, UniProt P31389).
T1 construct: the trachea was cut into six ring segments each three cartilage bands wide and then suspended in 20 ml organ baths; from tissue; host or cells: guinea-pig isolated trachea (Dunkin-Hartley)
T1 sequence (P31389 whole entry): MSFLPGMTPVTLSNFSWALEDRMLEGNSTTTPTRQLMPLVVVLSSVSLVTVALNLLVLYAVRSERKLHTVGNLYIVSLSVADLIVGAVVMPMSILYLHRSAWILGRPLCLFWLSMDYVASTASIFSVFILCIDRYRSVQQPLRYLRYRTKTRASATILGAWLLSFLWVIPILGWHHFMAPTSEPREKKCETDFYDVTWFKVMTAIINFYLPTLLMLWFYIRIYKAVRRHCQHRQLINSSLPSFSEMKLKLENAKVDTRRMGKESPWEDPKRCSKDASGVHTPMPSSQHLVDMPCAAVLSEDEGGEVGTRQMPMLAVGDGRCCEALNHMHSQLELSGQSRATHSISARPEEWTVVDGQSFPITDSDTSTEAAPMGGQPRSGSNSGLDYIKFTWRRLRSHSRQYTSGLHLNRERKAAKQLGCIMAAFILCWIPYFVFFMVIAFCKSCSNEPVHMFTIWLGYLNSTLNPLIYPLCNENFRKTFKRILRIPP
Nature of the data set: Guinea-pig isolated trachea (histamine concentration effect curves). To be noted: guinea-pig tracheal rings; histamine E/[A] curve after 60 minutes incubation with test compound. As to the method:
Guinea-pig Isolated Trachea
(See for example, Harrison, R. W. S., Carswell, H. & Young, J. M. (1984) European J. Pharmacol., 106, 405-409.)
Male albino Dunkin-Hartley guinea-pigs (250 g) were killed by cervical dislocation and the whole trachea removed. After clearing the adherent connective tissue, the trachea was cut into six ring segments each three cartilage bands wide and then suspended in 20 ml organ baths containing Krebs-Henseleit solution of the following composition (MM): NaCl 117.6, NaH2PO4 0.9, NaHCO3 25.0, MgSO4 1.2, KCl 5.4, CaCl2 2.6 and glucose 11.1. The buffer was maintained at 37° C. and gassed with 5% CO2 in oxygen. Indomethacin (2.8 μM) was added to the Krebs solution to prevent development of smooth muscle tone due to the synthesis of cyclo-oxygenase products. […] Changes in isometric force were recorded on 2-channel Sekonic flat bed chart recorders. […]
Contraction responses were recorded as a percentage of the first curve maximum. […]
Experimental E/[A] curve data were analysed for the purposes of estimating the potencies (p[A50] values) of histamine in the absence and presence of the test compound. Affinity (pA2) values of test compounds were subsequently calculated using the following equation: log(r−1)=log[B]+pA2 where r=[A]50 in presence of test compound/[A]50 in absence of antagonist and [B] is the concentration of test compound.

On to `O=C(NS(=O)(=O)CCN1CCC(Oc2ccc(Cl)c(Cl)c2)CC1)c1ccccc1Cl` [Example 19, N-(2-Chlorobenzoyl)-4-(3,4-dichlorophenoxy)-1-piperidineethanesulfonamide], for which the melting point was in the range of 237 to 239 °C. `Cc1ccc(S(=O)(=O)NC(=O)CCN2CCC(Oc3ccc(Cl)c(Cl)c3)CC2)cc1` [Example 20, N-[3-[4-(3,4-dichlorophenoxy)-1-piperidinyl]-1-oxopropyl]4-methyl-benzenesulfonamide] came in with a melting point of 177 to 179 °C.

For `Cc1ccc(S(=O)(=O)NC(=O)NCCN2CCC(Oc3ccc(Cl)c(Cl)c3)CC2)cc1` [Example 1, N-[[[2-[4-(3,4-dichlorophenoxy)-1-piperidinyl]ethyl]amino]carbonyl]-4-methyl-benzenesulfonamide], the melting point lay in the range of 179.6 to 180.3 °C. For the same molecule, the “antagonism of the eotaxin mediated human eosinophil chemotaxis” value in data set [1] is “antagonist”. Besides, the H1 antagonism entry on H1 is “H1 antagonist”. As to `O=C(NS(=O)(=O)NCCCN1CCC(Oc2ccc(Cl)c(Cl)c2)CC1)c1ccccc1` [Example 18, N-benzoyl-N′-[3-[4-(3,4-dichlorophenoxy)-1-piperidinyl]propyl]-sulfamide], the melting point lay within 93 to 106 °C.
